Measurements published in ChEMBL document CHEMBL1201862, “PubChem BioAssay data set” (2004).
One block for each molecule: values may come before it. Activity calls are given as the source filed them.

Legend:
Galanin receptor type 3 = target: T1, Galanin receptor type 3 (Homo sapiens, UniProt O60755); assay: Fluorescence-based cell-based primary high throughput dose response assay to identify antagonists of the Galanin Receptor 3 (GalR3).; assay type: functional
T1 sequence (O60755 whole entry): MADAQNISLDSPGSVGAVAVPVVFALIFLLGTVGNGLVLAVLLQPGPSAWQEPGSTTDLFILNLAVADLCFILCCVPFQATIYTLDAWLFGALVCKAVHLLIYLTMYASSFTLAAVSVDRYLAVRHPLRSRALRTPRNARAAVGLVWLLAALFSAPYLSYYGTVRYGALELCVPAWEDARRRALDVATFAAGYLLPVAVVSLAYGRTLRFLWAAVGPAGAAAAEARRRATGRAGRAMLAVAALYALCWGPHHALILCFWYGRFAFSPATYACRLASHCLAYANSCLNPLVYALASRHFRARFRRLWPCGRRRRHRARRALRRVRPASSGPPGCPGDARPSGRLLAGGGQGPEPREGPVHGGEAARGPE

cells = assay type: functional, cell-based; conditions: HEK-CNG
[1] = target: T2, Hepatocyte nuclear factor 4-alpha (Homo sapiens, UniProt P41235); assay type: functional, cell-based;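 further: biochemical luminescence-based dose-response counterscreen measuring inhibition of HNF4 dimerization, run alongside a screen for blockers of ABHD5–perilipin-5 interaction; split luciferase complementation of HNF4 fusion proteins in cell lysate measuring dimerization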
T2 sequence (P41235 whole entry): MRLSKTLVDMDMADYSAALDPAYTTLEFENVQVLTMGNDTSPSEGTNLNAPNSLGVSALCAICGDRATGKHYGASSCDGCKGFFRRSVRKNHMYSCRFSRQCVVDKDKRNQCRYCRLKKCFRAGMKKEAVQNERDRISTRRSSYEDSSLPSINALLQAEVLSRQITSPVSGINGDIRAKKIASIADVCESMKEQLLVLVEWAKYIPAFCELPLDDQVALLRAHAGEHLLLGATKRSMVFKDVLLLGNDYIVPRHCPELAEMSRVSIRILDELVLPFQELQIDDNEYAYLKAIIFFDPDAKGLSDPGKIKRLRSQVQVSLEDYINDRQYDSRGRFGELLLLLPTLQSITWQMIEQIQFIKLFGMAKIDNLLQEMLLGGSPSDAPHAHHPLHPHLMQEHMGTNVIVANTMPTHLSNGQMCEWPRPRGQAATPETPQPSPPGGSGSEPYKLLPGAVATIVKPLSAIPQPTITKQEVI

[2] = target: T3, High affinity choline transporter 1 (Homo sapiens, UniProt Q9GZV3); assay: human choline transporter blockers, potency – cell-based, 5-point CRC, membrane potential dye, dose response (AID 504840); assay type: functional
T3 sequence (Q9GZV3 whole entry): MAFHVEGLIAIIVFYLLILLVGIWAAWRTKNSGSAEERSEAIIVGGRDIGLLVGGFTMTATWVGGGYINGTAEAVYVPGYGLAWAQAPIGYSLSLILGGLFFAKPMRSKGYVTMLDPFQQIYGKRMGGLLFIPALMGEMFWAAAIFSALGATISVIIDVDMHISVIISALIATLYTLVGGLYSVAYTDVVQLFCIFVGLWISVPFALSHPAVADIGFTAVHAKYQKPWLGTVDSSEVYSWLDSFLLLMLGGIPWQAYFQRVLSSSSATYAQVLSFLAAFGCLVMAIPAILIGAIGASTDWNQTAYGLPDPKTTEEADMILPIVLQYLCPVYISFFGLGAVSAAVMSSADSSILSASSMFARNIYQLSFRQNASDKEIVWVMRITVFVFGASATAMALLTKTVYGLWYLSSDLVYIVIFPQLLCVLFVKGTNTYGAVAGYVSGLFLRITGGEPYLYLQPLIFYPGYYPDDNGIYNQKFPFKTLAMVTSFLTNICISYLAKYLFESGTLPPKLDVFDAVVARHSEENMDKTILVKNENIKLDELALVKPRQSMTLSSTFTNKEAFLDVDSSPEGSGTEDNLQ

[3] = target: T4, DNA repair and recombination protein RAD54-like (Homo sapiens, UniProt Q92698); assay: RAD54 Holliday junction migration blockers – biochemical, fluorescence, cherry-picked samples, dose series, confirmation (AID 651657); assay type: functional
T4 sequence (Q92698 whole entry): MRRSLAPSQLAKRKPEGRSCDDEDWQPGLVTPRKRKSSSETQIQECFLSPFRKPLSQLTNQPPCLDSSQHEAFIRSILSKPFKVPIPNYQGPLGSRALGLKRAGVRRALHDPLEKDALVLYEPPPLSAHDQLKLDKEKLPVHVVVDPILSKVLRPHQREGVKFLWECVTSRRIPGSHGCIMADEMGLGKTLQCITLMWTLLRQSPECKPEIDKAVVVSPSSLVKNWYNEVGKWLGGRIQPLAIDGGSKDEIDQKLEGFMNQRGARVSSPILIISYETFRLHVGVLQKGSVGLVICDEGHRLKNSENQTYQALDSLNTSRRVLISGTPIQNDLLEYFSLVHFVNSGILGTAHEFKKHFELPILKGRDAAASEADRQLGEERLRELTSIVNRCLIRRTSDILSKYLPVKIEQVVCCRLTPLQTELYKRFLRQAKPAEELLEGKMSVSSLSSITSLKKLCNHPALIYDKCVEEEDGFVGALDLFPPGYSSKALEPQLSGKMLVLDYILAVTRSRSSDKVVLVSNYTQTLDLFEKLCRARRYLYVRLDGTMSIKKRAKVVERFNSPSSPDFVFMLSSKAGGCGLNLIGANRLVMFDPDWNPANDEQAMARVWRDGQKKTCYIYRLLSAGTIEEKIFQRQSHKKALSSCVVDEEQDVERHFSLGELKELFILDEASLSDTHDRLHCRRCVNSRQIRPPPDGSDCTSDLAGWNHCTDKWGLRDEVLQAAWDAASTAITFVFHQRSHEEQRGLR

[4] = target: Heat shock protein HSP 90-alpha (Homo sapiens, UniProt P07900); assay type: functional, organism-based
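Wherever EC50 is given: target is galanin receptor GalR3 read with a cAMP biosensor in HEK293 cells.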

Compound: N#Cc1nc(N2CCCC2)nc(N2CCCC2)n1
- IC50 (Galanin receptor type 3): 1.81 µM (active)
- EC50 (cells): > 29.9 µM (inactive)

Compound: N#Cc1ccc(C(C(=O)Nc2ccc3c(c2)OCCO3)n2c(=O)c(-c3ccco3)nc3ccccc32)cc1 (configuration not stated)
- IC50 [1]: 9.98 µM (active)

Compound: CCCCN(CCCC)CCNC(=O)c1cn(CC)c2ccc(S(=O)(=O)N(C)C3CCCCC3)cc2c1=O
- IC50 [2]: 15.8 µM (active)

Results, then the molecule that gave them:

- AC50 [3]: 46.5 µM (active)
Compound: CCN1CCN(CCCNC(=O)c2cc3c(O)nc4ccccc4c3s2)CC1

- AC50 [4]: 7.25 µM (active)
Compound: Cc1c(C(=O)NCCSCc2cccc(C(F)(F)F)c2)cnn1-c1ccc(Cl)cc1

- IC50 [1]: 4 µM (active)
Compound: Cc1ccc(O)c(C(=O)C=Cc2ccccc2)c1
